The term IC50 denotes the concentration that gives 50% inhibition. A lower IC50 goes with greater potency in that assay.

We go through 29 compounds from patent US12466800B2, “N-((1,2,3,5,6,7-hexahydro-S-indacen-4-yl)carbamoyl)-4, 5, 6, 7-tetrahydrobenzofuran-2-sulfonamide derivatives and related compounds as NLPR3 modulators for the treatment of multiple sclerosis (MS)” (Zomagen Biosciences Ltd, priority 2019, dated 2025).

In this test the test system is IL-1b. The test is described as follows: Mouse BMDM IL-1b Assay. The following applies: Macrophage; mouse bone marrow derived macrophages (C57BL6); 200 ng/mL LPS 3 h, compound 30 min, 5 mM ATP 45 min; IL-1b ELISA of supernatant. In kind it is cell-based. The method, then:
Example 20: Mouse BMDM IL-1b Assay
Mouse bone marrow cells from C57BL6 tibia and femur were culture in complete Isocov's Media supplemented with 20 ng/mL MCSF (BMDM media) at a density of 50 million cells/15 cm Petri dish. Fresh media was changed every 3 days, and bone marrow derived macrophages were collected, washed, and counted on day 7. Cells were seeded into 96 well plates at a density of 5×10^4 cells per well in 100 uL of BMDM media and cultured overnight. The cells were stimulated at 37° C. with 200 ng/mL Ultrapure LPS-B5 for 3 hours before pre-diluted compounds were added. 30 minutes after compound addition, 5 mM ATP was added for the secondary stimulation for 45 minutes. After stimulation, the plates were briefly spun down, and 50 uL of supernatant was harvested from each well. ELISA for mouse IL-1b was performed with 1:10 and 1:100 diluted supernatant using pre-coated kits. IL-1b concentrations were calculated based on pre-titrated standards, and compound inhibition IC50 is generated using the Levenberg Marquardt damped lease-square method.
(In an ELISA, binding on a coated surface is turned into a signal by an enzyme label.)

SMILES strings stand for the structures.

As to `CC(C)c1cc(C#N)cc(C(C)C)c1NC(=O)NS(=O)(=O)c1cc2c(o1)CCCC2O` (centres unmarked) [Compound 71, N-((4-cyano-2,6-diisopropylphenyl)carbamoyl)-4-hydroxy-4,5,6,7-tetrahydrobenzofuran-2-sulfonamide], the IC50 lay in the range of 100 to 1000 nM.

`CC(C)c1cc(C#N)cc(C(C)C)c1NC(=O)NS(=O)(=O)c1cc2c(o1)CCCC2(C)O` (centres unmarked) [Compound 72, N-((4-cyano-2,6-diisopropylphenyl)carbamoyl)-4-hydroxy-4-methyl-4,5,6,7-tetrahydrobenzofuran-2-sulfonamide] yielded an IC50 of 100 to 1000 nM.

Consider `CC(C)c1cccc(C(C)C)c1NC(=O)NS(=O)(=O)c1cc2c(o1)CCCC2=NO` [Compound 73, N-((2,6-diisopropylphenyl)carbamoyl)-4-(hydroxyimino)-4,5,6,7-tetrahydrobenzofuran-2-sulfonamide], for which the IC50 was in the range of 100 to 1000 nM. For the compound `CC(C)c1cccc(C(C)C)c1CC(=O)NS(=O)(=O)c1cc2c(o1)CCC(C)(C)C2O` (centres unmarked) [Compound 74, 2-(2,6-diisopropylphenyl)-N-((4-hydroxy-5,5-dimethyl-4,5,6,7-tetrahydrobenzofuran-2-yl)sulfonyl)acetamide], the half-inhibitory concentration (IC50) lay within 1000 to 10000 nM.

`CC(C)c1cccc(C(C)C)c1CC(=O)NS(=O)(=O)c1cc2c(o1)CCC(C)(C)C2(C)O` (centres unmarked) [Compound 75, 2-(2,6-diisopropylphenyl)-N-((4-hydroxy-4,5,5-trimethyl-4,5,6,7-tetrahydrobenzofuran-2-yl)sulfonyl)acetamide]: the IC50 was 1000 to 10000 nM. Regarding `CC(C)c1cccc(C(C)C)c1CC(=O)NS(=O)(=O)c1cc2c(o1)CCC(C)(C)C2=O` [Compound 76, 2-(2,6-diisopropylphenyl)-N-((5,5-dimethyl-4-oxo-4,5,6,7-tetrahydrobenzofuran-2-yl)sulfonyl)acetamide], the IC50 lay within 1000 to 10000 nM. The same measure for `CC(C)c1cc(Cl)cc(C(C)C)c1NC(=O)NS(=O)(=O)c1cc2c(o1)CCC/C2=N/O` [Compound 77, (Z)-N-((4-chloro-2,6-diisopropylphenyl)carbamoyl)-4-(hydroxyimino)-4,5,6,7-tetrahydrobenzofuran-2-sulfonamide]: 100 to 1000 nM; for `CC(C)c1cc(Cl)cc(C(C)C)c1NC(=O)NS(=O)(=O)c1cc2c(o1)CCC/C2=N\O` [Compound 78, (E)-N-((4-chloro-2,6-diisopropylphenyl)carbamoyl)-4-(hydroxyimino)-4,5,6,7-tetrahydrobenzofuran-2-sulfonamide]: 1000 to 10000 nM. On to `CC(C)c1ccc(Cl)c(C(C)C)c1NC(=O)NS(=O)(=O)c1cc2c(o1)CCC/C2=N/O` [Compound 79, (Z)-N-((3-chloro-2,6-diisopropylphenyl)carbamoyl)-4-(hydroxyimino)-4,5,6,7-tetrahydrobenzofuran-2-sulfonamide], for which the IC50 is 100 to 1000 nM. In turn, `CC(C)c1ccc(Cl)c(C(C)C)c1NC(=O)NS(=O)(=O)c1cc2c(o1)CCC/C2=N\O` [Compound 80, (E)-N-((3-chloro-2,6-diisopropylphenyl)carbamoyl)-4-(hydroxyimino)-4,5,6,7-tetrahydrobenzofuran-2-sulfonamide] registered an IC50 of 100 to 1000 nM. With `CC(C)c1cccc(C(C)C)c1NC(=O)NS(=O)(=O)c1cc2c(o1)CCC/C2=N\O` [Compound 81, (E)-N-((2,6-diisopropylphenyl)carbamoyl)-4-(hydroxyimino)-4,5,6,7-tetrahydrobenzofuran-2-sulfonamide], the IC50 fell in the range of 1000 to 10000 nM. Compound `O=C(Nc1c2c(c(Br)c3c1CCC3)CCC2)NS(=O)(=O)c1cc2c(o1)CCC/C2=N/O` [Compound 82, (Z)-N-((8-bromo-1,2,3,4,5,6,7-hexahydro-s-indacen-4-yl)carbamoyl)-4-(hydroxyimino)-4,5,6,7-tetrahydrobenzofuran-2-sulfonamide] gave an IC50 of 100 to 1000 nM. The same measure for `O=C(Nc1c2c(c(Cl)c3c1CCC3)CCC2)NS(=O)(=O)c1cc2c(o1)CCC/C2=N/O` [Compound 83, (Z)-N-((8-chloro-1,2,3,5,6,7-hexahydro-s-indacen-4-yl)carbamoyl)-4-(hydroxyimino)-4,5,6,7-tetrahydrobenzofuran-2-sulfonamide]: less than 100 nM. The result for `CC(C)N1CCCc2oc(S(=O)(=O)NC(=O)Nc3c4c(cc5c3CCC5)CCC4)cc2C1=O` [Compound 84, N-((1,2,3,5,6,7-hexahydro-s-indacen-4-yl)carbamoyl)-5-isopropyl-4-oxo-5,6,7,8-tetrahydro-4H-furo[3,2-c]azepine-2-sulfonamide] reads 1000 to 10000 nM. The result for `CC(C)c1cc(F)cc(C(C)C)c1NC(=O)NS(=O)(=O)c1cc2c(o1)CCC/C2=N/O` [Compound 85, (Z)-N-((4-fluoro-2,6-diisopropylphenyl)carbamoyl)-4-(hydroxyimino)-4,5,6,7-tetrahydrobenzofuran-2-sulfonamide] reads 1000 to 10000 nM. Take `CC(C)c1cc(F)cc(C(C)C)c1NC(=O)NS(=O)(=O)c1cc2c(o1)CCC/C2=N\O` [Compound 86, (E)-N-((4-fluoro-2,6-diisopropylphenyl)carbamoyl)-4-(hydroxyimino)-4,5,6,7-tetrahydrobenzofuran-2-sulfonamide]: the IC50 fell in the range of 100 to 1000 nM. With `CN1CCCc2oc(S(=O)(=O)NC(=O)Nc3c4c(cc5c3CCC5)CCC4)cc2C1` [Compound 87, N-((1,2,3,5,6,7-hexahydro-s-indacen-4-yl)carbamoyl)-5-methyl-5,6,7,8-tetrahydro-4H-furo[3,2-c]azepine-2-sulfonamide], the concentration for half-maximal inhibition (IC50) is less than 100 nM. Compound `C=CCC1(O)c2cc(S(=O)(=O)NC(=O)Nc3c4c(cc5c3CCC5)CCC4)oc2CCC1(C)C` (centres unmarked) [Compound 88, 4-allyl-N-((1,2,3,5,6,7-hexahydro-s-indacen-4-yl)carbamoyl)-4-hydroxy-5,5-dimethyl-4,5,6,7-tetrahydrobenzofuran-2-sulfonamide] displayed an IC50 of less than 100 nM. `O=C(Nc1c2c(c(F)c3c1CCC3)CCC2)NS(=O)(=O)c1cc2c(o1)CCC/C2=N/O` [Compound 89, (Z)-N-((8-fluoro-1,2,3,5,6,7-hexahydro-s-indacen-4-yl)carbamoyl)-4-(hydroxyimino)-4,5,6,7-tetrahydrobenzofuran-2-sulfonamide]: the IC50 was less than 100 nM. With `O=C(Nc1c2c(c(F)c3c1CCC3)CCC2)NS(=O)(=O)c1cc2c(o1)CCC/C2=N\O` [Compound 90, (E)-N-((8-fluoro-1,2,3,5,6,7-hexahydro-s-indacen-4-yl)carbamoyl)-4-(hydroxyimino)-4,5,6,7-tetrahydrobenzofuran-2-sulfonamide], the IC50 is less than 100 nM.

Regarding `Cc1c(S(=O)(=O)NC(=O)Nc2c3c(cc4c2CCC4)CCC3)oc2c1C(=O)CCC2` [Compound 91, N-((1,2,3,5,6,7-hexahydro-s-indacen-4-yl)carbamoyl)-3-methyl-4-oxo-4,5,6,7-tetrahydrobenzofuran-2-sulfonamide], the IC50 was less than 100 nM. In turn, `Cc1c(S(=O)(=O)NC(=O)Nc2c3c(cc4c2CCC4)CCC3)oc2c1C(O)CCC2` (centres unmarked) [Compound 92, N-((1,2,3,5,6,7-hexahydro-s-indacen-4-yl)carbamoyl)-4-hydroxy-3-methyl-4,5,6,7-tetrahydrobenzofuran-2-sulfonamide] yielded an IC50 of less than 100 nM. The compound `Cc1c(S(=O)(=O)NC(=O)Nc2c3c(cc4c2CCC4)CCC3)oc2c1C(C)(O)CCC2` (centres unmarked) [Compound 93, N-((1,2,3,5,6,7-hexahydro-s-indacen-4-yl)carbamoyl)-4-hydroxy-3,4-dimethyl-4,5,6,7-tetrahydrobenzofuran-2-sulfonamide] gave an IC50 of less than 100 nM. `CCOC(=O)CC1(C)CCCc2oc(S(=O)(=O)NC(=O)Nc3c4c(cc5c3CCC5)CCC4)c(C)c21` (centres unmarked) [Compound 94, ethyl 2-(2-(N-((1,2,3,5,6,7-hexahydro-s-indacen-4-yl)carbamoyl)sulfamoyl)-3,4-dimethyl-4,5,6,7-tetrahydrobenzofuran-4-yl)acetate]: the IC50 lay within 100 to 1000 nM. The same measure for `O=C(Nc1c2c(c(Br)c3c1CCC3)CCC2)NS(=O)(=O)c1cc2c(o1)CCC/C2=N\O` [Compound 95, (E)-N-((8-bromo-1,2,3,5,6,7-hexahydro-s-indacen-4-yl)carbamoyl)-4-(hydroxyimino)-4,5,6,7-tetrahydrobenzofuran-2-sulfonamide]: 100 to 1000 nM; for `O=C(Nc1c2c(c(Cl)c3c1CCC3)CCC2)NS(=O)(=O)c1cc2c(o1)CCC/C2=N\O` [Compound 96, (E)-N-((8-chloro-1,2,3,5,6,7-hexahydro-s-indacen-4-yl)carbamoyl)-4-(hydroxyimino)-4,5,6,7-tetrahydrobenzofuran-2-sulfonamide]: 100 to 1000 nM; for `CC(C)c1ccc(F)c(C(C)C)c1NC(=O)NS(=O)(=O)c1cc2c(o1)CCC/C2=N/O` [Compound 97, (Z)-N-((3-fluoro-2,6-diisopropylphenyl)carbamoyl)-4-(hydroxyimino)-4,5,6,7-tetrahydrobenzofuran-2-sulfonamide]: 100 to 1000 nM.

In turn, `CC(C)c1ccc(F)c(C(C)C)c1NC(=O)NS(=O)(=O)c1cc2c(o1)CCC/C2=N\O` [Compound 98, (E)-N-((3-fluoro-2,6-diisopropylphenyl)carbamoyl)-4-(hydroxyimino)-4,5,6,7-tetrahydrobenzofuran-2-sulfonamide] had an IC50 of 100 to 1000 nM.

The compound `Cc1c(S(=O)(=O)NC(=O)Nc2c3c(cc4c2CCC4)CCC3)oc2c1/C(=N\O)CCC2` [Compound 99, (Z)-N-((1,2,3,5,6,7-hexahydro-s-indacen-4-yl)carbamoyl)-4-(hydroxyimino)-3-methyl-4,5,6,7-tetrahydrobenzofuran-2-sulfonamide] registered an IC50 of 100 to 1000 nM.
